Results on three compounds are retold here after patent US20200237852A1, “Small Molecule Enhancers of Paneth Cell Function and Differentiation” (Massachusetts Institute of Technology, priority 2019, published 2020).

Assay [1] concerns 6-day ENR+CD cells. The assay can be described thus: Long-term (48-hour) modulators of basal and CCh-induced LYZ secretion. In kind it is cell-based, murine. The note with it: 48-hour treatment. The text has this: (§1) We next sought to profile potential long-term modulators of differentiated PC survival and antimicrobial secretion, as well as gauge the interaction between long-term modulators and short-term induced secretion (via CCh). To accomplish this, we employed a similar set up as in the short-term experiment, with the exception that upon plating day 4 ENR+CD cells we additionally supplemented in either MDP, LPS, TNF-α, or IFN-γ for the additional 2 days in culture and assayed all conditions for both basal and CCh-induced LYZ secretion over 3 hours on day 6 of differentiation (FIG. 3A). […] Additionally, we see that the long-term addition reduces CCh-induced secretory function relative to the untreated control for all agents (FIG. 3D).
(§2) Small intestinal crypts were isolated from C57BL/6 mice of both sexes, aged between three to six months in all experiments. Crypts were then cultured in a Matrigel culture system. Briefly, crypts were resuspended in basal culture medium (Advanced DMEM/F12 with 2 mM GlutaMAX and 10 mM HEPES; Thermo Fisher Scientific) at a 1:1 ratio with Corning™ Matrigel™ Membrane Matrix—GFR (Fisher Scientific) and plated at the center of each well of 24-well plates. Following Matrigel polymerization, 500 μL of small intestinal crypt culture medium (basal media plus 100× N2 supplement, 50×B27 supplement; Life Technologies, 500× N-acetyl-L-cysteine; Sigma-Aldrich) supplemented with growth factors EGF—E (50 ng/mL, Life Technologies), Noggin—N (100 ng/mL, PeproTech) and R-spondin 1—R (500 ng/mL, PeproTech) and small molecules CHIR99021—C (3 μM, LC Laboratories) and valproic acid—V (1 mM, Sigma-Aldrich) was added to each well. ROCK inhibitor Y-27632—Y (10 μM, R&D Systems) was added for the first 2 days of culture. Cells were cultured at 37° C. with 5% CO2, and cell culture medium was changed every other day. After 6 days of culture, crypt organoids were isolated from Matrigel by mechanical dissociation. To expand enriched ISCs (ENR+CV/Y) or Paneth Cells (ENR+CD), organoids were cultured in 24-well plates, suspended in 40 uL 3-D gels (50-50 GFR MATRIGEL®, Basal culture media), with 500 uL of crypt media supplemented with necessary growth factors and small molecules. ROCK inhibitor (Y) was added for the first two days of ISC culture following reconstitution from cryopreservation or trypLE passaging to single cells. Cell culture medium was changed every other day. After 4 days of culture in ENR+CV, cell clusters were differentiated to PCs under the ENR+CD condition for 96-well short and long-term screens. For 384-well differentiation screens, 4-day ENR+CV clusters were passaged to single cells using trypLE, replated and expanded another 3 days in 3-D ENR+CVY and then passaged directly into screens.
For 96-well plate high-throughput screening, 4-day differentiated (ENR+CD) cell clusters in 3D Matrigel were transferred to a “2.5-D” 96-well plate culture system. Briefly, cell culture gel and medium were homogenized via mechanical disruption and centrifuged at 300 g for 3 min at 4° C. […] On the last repeat, pellet was resuspended in basal culture medium, the number of cell clusters counted, and centrifuged at 300 g for 3 min at 4° C. […] At end time points (following 2 days in culture and 3 hours of stimulation), lysozyme secretion and cell viability were assessed using Lysozyme Assay Kit and CellTiter-Glo 3D Cell Viability Assay (Promega), respectively, according to the manufacturers' protocols. […]

In assay [2] the test system is 6-day ENR+CD cells. Description: Cell pellet ATP after long-term (48-hour) treatment. In kind it is cell-based, murine. The note with it: low doses.
Text: as §1
as §2, with “ROCK inhibitor (Y) was added for the first two days of ISC culture following reconstitution from cryopreservation or trypLE passaging to single cells. Cell culture medium was changed every other day. After 4 days of culture in ENR+CV, cell clusters were differentiated to PCs under the ENR+CD condition for 96-well short and long-term screens. For 384-well differentiation screens, 4-day ENR+CV clusters were passaged to single cells using trypLE, replated and expanded another 3 days in 3-D ENR+CVY and then passaged directly into screens.” left out
For 96-well plate high-throughput screening, 4-day differentiated (ENR+CD) cell clusters in 3D Matrigel were transferred to a “2.5-D” 96-well plate culture system. […] On the last repeat, pellet was resuspended in basal culture medium, the number of cell clusters counted, and centrifuged at 300 g for 3 min at 4° C. […] At end time points (following 2 days in culture and 3 hours of stimulation), lysozyme secretion and cell viability were assessed using Lysozyme Assay Kit and CellTiter-Glo 3D Cell Viability Assay (Promega), respectively, according to the manufacturers' protocols. […]

Assay [3] has as its system 6-day ENR+CD cells. Description: Short-term (3-hour) stimulation of LYZ secretion, 2.5-D 96-well platform. Format: cell-based, murine. The text has this: We first sought to profile the potential short-term actors, IFN-γ, LPS, and CCh, and see if with the added resolution of this first-of-its-kind PC platform, we might be able to determine high-resolution EC50's. To generate sufficient cells for plating out all necessary conditions we first expanded and enriched ISCs in traditional 3-D culture and subsequently differentiated for 4 days towards PCs (ENR+CD). Next, we passaged and plated these cells into 96-well plates as 2.5-D and continued differentiating for an additional 2 days in ENR+CD. On day 6 of differentiation, each well was then washed with basal media repeatedly and stimulated with its respective agent, with a measurement of supernatant LYZ paired to cell pellet ATP (FIG. 2A). This screen was repeated on three separate occasions with cells from three distinct murine donors and analyzed combined. We first wanted to determine the approximate standardized effect size of each treatment at each dose, which was accomplished through the replicate-based strictly standardized mean difference (SSMD), an effect size measure based on the statistics of contrast variables, and particularly useful in screening applications as it is a measure which takes into account both mean difference and variance in a single measure. […] In total, we see that our 2.5-D platform does provide a reasonable system for assessing and screening for potential short-term modulators of PC antimicrobial secretion.
Small intestinal crypts were isolated from C57BL/6 mice of both sexes, aged between three to six months in all experiments. Crypts were then cultured in a Matrigel culture system. Briefly, crypts were resuspended in basal culture medium (Advanced DMEM/F12 with 2 mM GlutaMAX and 10 mM HEPES; Thermo Fisher Scientific) at a 1:1 ratio with Corning™ Matrigel™ Membrane Matrix—GFR (Fisher Scientific) and plated at the center of each well of 24-well plates. […]

Assay [4] deals with 6-day ENR+CD cells. Description: Cell pellet ATP after short-term (3-hour) stimulation, 2.5-D 96-well platform. In kind it is cell-based, murine. As to conditions: CCh: adj. p<0.01 for 10 and 100 μM doses. The text has this: We first sought to profile the potential short-term actors, IFN-γ, LPS, and CCh, and see if with the added resolution of this first-of-its-kind PC platform, we might be able to determine high-resolution EC50's. To generate sufficient cells for plating out all necessary conditions we first expanded and enriched ISCs in traditional 3-D culture and subsequently differentiated for 4 days towards PCs (ENR+CD). Next, we passaged and plated these cells into 96-well plates as 2.5-D and continued differentiating for an additional 2 days in ENR+CD. On day 6 of differentiation, each well was then washed with basal media repeatedly and stimulated with its respective agent, with a measurement of supernatant LYZ paired to cell pellet ATP (FIG. 2A). This screen was repeated on three separate occasions with cells from three distinct murine donors and analyzed combined. We first wanted to determine the approximate standardized effect size of each treatment at each dose, which was accomplished through the replicate-based strictly standardized mean difference (SSMD), an effect size measure based on the statistics of contrast variables, and particularly useful in screening applications as it is a measure which takes into account both mean difference and variance in a single measure. […]

Assay [5] concerns ENR+CD organoids. The assay can be described thus: Flow cytometry analysis, 3D culture, XPO1 inhibitors. In kind it is cell-based, C57BL/6 mice. The note with it: 6-day ENR+CD organoids. How it is done:
ISC-enriched organoids cultured in 3D Matrigel with ENRCV media were passaged to 24-well plate in 3D Matrigel with ENRCV. At day zero, media were replaced to ENRCD with or without indicated compounds, and media were replaced every other day. At day six, cells were washed with basal media, and then harvested from Matrigel by mechanical disruption in TrypLE Express (ThermoFisher, 12605010) to remove Matrigel and dissociate organoids to single cells. After vigorous pipetting and incubation at 37° C. for 20 min, dissociated organoids were strained through a 35 μm cell strainer into a tube (Falcon, 352235). The cell filtrate was centrifuged again at 300×g for 3 min at 4° C. to pellet the cells. Cell pellets were resuspended in FACS buffer (2% FBS in PBS), and then transferred to an ultra low-bind 96-well plate (Corning, 7007). Cells were stained with Zombie-violet viability dye (BioLegend, 423107) at 100× for viability staining and/or antibody staining solution. FITC-conjugated antibody for lysozyme (Dako, […]) and APC-conjugated antibody for CD24 (BioLegend, 138505) were used at 100× dilution. Flow cytometry was performed using an LSR Fortessa (BD; Koch Institute Flow Cytometry Core at MIT). The data were analyzed using FlowJo v10 software.
On the technique in general: Flow cytometry measures light scatter and fluorescence of single cells or particles in a stream.

Assay [6] deals with organoids differentiated under ENR+CV, ENR+CD, or ENR. Description: Western blotting for LYZ in organoids. Format: cell-based, C57BL/6 mice. The note with it: six days in ENR+CV. The text has this: ISC-enriched organoids cultured in 3D Matrigel with ENRCV media were passaged to 24-well plate in 3D Matrigel with ENRCV. At day zero, media were replaced to ENR or ENRCD with or without indicated compounds, and media were replaced every other day. At day six, cells were harvested from Matrigel by mechanical disruption and suspended in basal media. Cell pellets were lysed with Pierce® IP lysis buffer (ThermoFisher, 87787) containing Halt™ Protease Inhibitor Cocktail, EDTA-Free (ThermoFisher, 87785) after 3-minute centrifuge at 300×g at 4° C. Cell extracts were resolved by NuPAGE® SDS-PAGE Gel system (ThermoFisher) and electroblotted onto polyvinylidene difluoride membranes using Criterion™ Blotter (Biorad). The membranes were blocked with 2% Blotting-Grade Blocker (Biorad, 1706404) in TBS-T (50 mM Tris-HCl, 150 mM NaCl, and 0.1% Tween 20, pH 8.0) and then probed with appropriate antibodies. Detection was performed using ECL Select™ Western Blotting Detection Reagent (Amersham, 45-000-999) and ImageQuant LAS4000 (GE Healthcare).

Structures are written as SMILES.

What is called EC50 is the concentration needed to bring the measured effect to its halfway point.

Regarding `CC(=O)N[C@H]1C(O)O[C@H](CO)[C@@H](O)[C@@H]1O[C@H](C)C(=O)N[C@@H](C)C(=O)N[C@H](CCC(=O)O)C(N)=O` (mixture of isomers) [MDP, muramyl dipeptide], the “effect size of reduction of CCh-induced secretory function relative to untreated control” value in assay [1] (CCh-induced secretion over 3 hours on day 6) is reported as “fairly moderate”. Further, in assay [1] (basal secretion over 3 hours on day 6), the “change in basal LYZ secretion (SSMD effect)” value is on record as “fairly moderate decrease in basal secretion”. In addition, in assay [2], the “SSMD effect size of increase in cell number (ATP)” value is on record as “fairly moderate” and the “change in cell number (ATP rel. to ENR+CD)” value was “apparent increases in cell number”.
Regarding `C[N+](C)(C)CCOC(N)=O.[Cl-]` [CCh, carbamyl choline], in assay [3] (3-hour stimulation of 6-day ENR+CD cells, 9-well replicates from 3 bio. donors, read-out: EC50 for LYZ secretion (least-squares dose-response fit)), the EC50 turned out to be 5 µM. For the same compound, the “SSMD effect size as short-term modulator of LYZ secretion” value in assay [3] (3-hour stimulation, across all tested doses) was “strong effect”. In assay [4], the “effect on cellular ATP” value is given as “significant effect on cellular ATP”.
As to `CCC(=C/[C@H](C)C/C=C/C(C)=C/[C@@H](C)C(=O)[C@@H](C)[C@H](O)[C@@H](C)C/C(C)=C/C(=O)O)/C=C/[C@@H]1OC(=O)C=C[C@@H]1C` [Leptomycin B], in assay [5], the “Paneth cell representation by flow cytometry” value was “statistically significant increases in Paneth cell representation”. Further, the “LYZ abundance on a per-mass protein normalized basis (western blot)” value in assay [6] is recorded as “appreciably increase LYZ abundance”.
